Test results taken from ChEMBL document CHEMBL1773064, “Engineered Thermoplasma acidophilum factor F3 mimics human aminopeptidase N (APN) as a target for anticancer drug development” (Bioorg Med Chem, 2011).

Legend:
[1] = Solubility of compound; assay type: physicochemical
[2] = Inhibition of Thermoplasma acidophilum ATCC25905 recombinant Tricorn protease-interacting factor F3 E101Q, N261T mutant using Leu-p-nitroanilide as a substrate after 30 mins

## NC(Cc1ccccc1)C(=O)NC(CCCCNC(=O)OCc1ccccc1)C(=O)NO (configuration not stated)
[1]
  solubility: soluble
[2]
  IC50: 30 µM
